Measured values from publication PMC8453635, “Piperidine Azasugars Bearing Lipophilic Chains: Stereoselective Synthesis and Biological Activity as Inhibitors of Glucocerebrosidase (GCase)” (The Journal of Organic Chemistry, 2021).

Target: T1, β-mannosidase (Homo sapiens, UniProt O00462)
T1 construct: from leukocytes isolated from healthy donors (controls); from tissue; host or cells: leukocytes from healthy donors, sonicated homogenate
T1 sequence (O00462 18-879): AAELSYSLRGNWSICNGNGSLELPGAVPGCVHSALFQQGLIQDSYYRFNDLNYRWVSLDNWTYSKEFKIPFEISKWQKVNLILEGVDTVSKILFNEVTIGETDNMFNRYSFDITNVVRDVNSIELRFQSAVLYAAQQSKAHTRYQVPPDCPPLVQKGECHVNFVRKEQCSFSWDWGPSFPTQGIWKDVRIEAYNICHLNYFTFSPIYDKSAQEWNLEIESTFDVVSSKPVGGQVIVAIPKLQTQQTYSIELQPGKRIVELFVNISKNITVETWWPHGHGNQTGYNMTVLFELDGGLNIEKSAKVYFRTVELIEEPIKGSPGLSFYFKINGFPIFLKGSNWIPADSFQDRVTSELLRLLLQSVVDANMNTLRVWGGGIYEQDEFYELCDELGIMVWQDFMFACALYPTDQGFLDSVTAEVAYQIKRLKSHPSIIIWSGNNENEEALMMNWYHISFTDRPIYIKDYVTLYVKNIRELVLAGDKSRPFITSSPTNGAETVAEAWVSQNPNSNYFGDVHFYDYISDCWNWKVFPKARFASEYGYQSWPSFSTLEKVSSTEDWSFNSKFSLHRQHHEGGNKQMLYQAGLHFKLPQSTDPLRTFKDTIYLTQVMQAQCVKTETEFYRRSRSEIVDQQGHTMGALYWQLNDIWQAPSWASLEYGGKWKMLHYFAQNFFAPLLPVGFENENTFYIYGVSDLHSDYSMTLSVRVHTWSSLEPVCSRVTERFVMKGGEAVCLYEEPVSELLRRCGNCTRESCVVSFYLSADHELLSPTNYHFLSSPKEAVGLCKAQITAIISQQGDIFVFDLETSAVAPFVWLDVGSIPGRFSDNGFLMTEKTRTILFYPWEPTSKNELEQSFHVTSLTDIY
Test: Human lysosomal glycosidase selectivity screening (leukocyte homogenate)
Assay type: biochemical
Conditions: 1 mM, read-out: percentage of inhibition, β-Man
Protocol: In order to avoid undesired inhibitory side effects of a potential new drug, it has to be selective for a given target. The selectivity of the newly synthesized compounds 14, 15, and 33·HCl toward GCase was then investigated, evaluating their inhibition at 1 mM concentration toward six other lysosomal glycosidases (namely, α-and β-mannosidases, α- and β-galactosidases, α-fucosidase, and α-glucosidase) in cell homogenates (leucocytes or lymphocytes) isolated from healthy donors. […] Indeed, only moderate inhibitory activity (ca. 50%) was found toward human β-galactosidase for both piperidines 14 and 15, while negligible inhibitory activity was detected in all other cases.
(§1) The effect of 1 mM concentration of 14, 15, and 33·HCl was assayed toward six lysosomal glycosidases other than GCase, namely, α-mannosidase, β-mannosidase, α-galactosidase, β-galactosidase, α-fucosidase from leukocytes isolated from healthy donors (controls) and α-glucosidase from lymphocytes isolated from healthy donors’ flesh blood (controls). Isolated leukocytes or lymphocytes were disrupted by sonication, and a micro BCA protein assay kit (Sigma-Aldrich) was used to determine the total protein amount for the enzymatic assay, according to the manufacturer’s instructions (for more details, see the Supporting Information section).
Selectivity of compounds 14, 15 and 33.HCl towards lysosomal enzymes.
as §1, with “15” for “15,”, “33.HCl” for “33·HCl”, “towards” for “toward”, “namely:” for “namely,”, “(Sigma–Aldrich)” for “(Sigma-Aldrich)”, “manufacturer instructions. […]” for “manufacturer’s instructions (for more details, see the Supporting Information section).”
Molecular Devices). Inhibition is given with respect to the control (without azasugar). Data are mean SD (n=3). […]
Inhibition is given with respect to the control (without azasugar). Data are mean SD (n=3). […]
(1 picture or pasted object on this page, not shown here) […]
α-Fucosidase activity was measured in a flat -bottomed 96 -well plate. Azasugar solution (3 μL), 4.29 μg/μL leukocytes homogenate 1:3 (7 μL), and substrate 4 -methylumbe lliferyl α-L-fucopyranoside (1.51 mM, 20 μL, Sigma –Aldrich) in Na phosphate/citrate buffer (0.2:0.1, M/M, pH 5.5) were incubated at 37 °C for 1 h. […]
Data are mean SD (n=3). S74 […]
α-Glucosidase activity was measured in a flat –bottomed 96 well plate. Azasugar solution (3 µL), 4.29 µg/µL lymphocytes homogenate (7µL) and 20 µL of substrate solution of 4 -methylumbelliferyl -α-D-glucopyranoside (Sigma -Aldrich) in Na a cetate buffer (0.2 M, pH 4.0) were incubated for 1 h at 37 °C. The reaction was stopped by the addition of a solution of sodium carbonate (200 µL; 0.5M, pH 10.7) containing Triton X -100 (0.0025 %), and the fluorescence of 4 -methylumbelliferone released by α-glucosidase activity was measured in […]
respect to the control (without azasugar). Data are means of 3 values. […]
Figure S 48. Activity of a panel of 6 hu man lysosomal glycosidases in the presence of compounds 14, 15 and 33.HCl (1 mM ). The corresponding calculated percentage of inhibition is indicated above each bar.

Row | Structure (SMILES) | inhibition at 1000 µM [%]
1 | CCCCCCCC[C@@H]1[C@@H](O)[C@H](O)[C@H](O)CN1C(CCCCCCC)CCCCCCC.Cl [compound 33·HCl, (2R,3R,4R,5R)-2-Octyl-1-(pentadecan-8-yl)-piperidine-3,4,5-triol Hydrochloride] | 2
2 | CCCCCCCC[C@H]1[C@@H](O)[C@H](O)[C@H](O)CN1CCCCCCCC [compound 14, (2S,3R,4R,5R)-1,2-Dioctylpiperidine-3,4,5-triol] | 0
3 | CCCCCCCC[C@@H]1[C@@H](O)[C@H](O)[C@H](O)CN1CCCCCCCC [compound 15, (2R,3R,4R,5R)-1,2-Dioctylpiperidine-3,4,5-triol] | 1
